Among the test systems are SF-295 CNS; ACHN renal; OVCAR-5 ovarian; OVCAR-8 ovarian; NCI-H23 lung; MDA-MB-231 breast; MALME-3M melanoma; HOP-92 NSCLC; SK-OV-3 ovarian; U251 CNS.
What all share (test): growth of human tumour cells (NCI), 48 h

“And” between values parts separate entries of the source, which are not always exact repeats. Equal values may be shown once.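 All cell lines were grown in 96-well plates and treated with compound for 48 hours. GI50 = concentration required for 50% inhibition of growth. The concentration for full growth arrest is given as TGI.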

As to `CCOC(=O)/C(=C/CC/C(C)=C/CC/C(C)=C/CCc1ccoc1)CC(=O)N1CCCCC1`, the GI50 in the assay on SF-295 CNS was 1.55 µM; in the assay on ACHN renal it was 2.93 µM; with OVCAR-5 ovarian it was 3.1 µM; with OVCAR-8 ovarian, 3.97 µM; in the assay on NCI-H23 lung, 3.12 µM; in the assay with MDA-MB-231 breast, 1.96 µM. For the same molecule, the results for the GI50 in the assay with MALME-3M melanoma, in the assay on HOP-92 NSCLC and with SK-OV-3 ovarian were 2.62 µM, 1.7 µM and 8.27 µM, respectively. For the same molecule, the TGI in the assay on SF-295 CNS turned out to be 5.08 µM; in the assay with ACHN renal, 10.3 µM; in the assay on OVCAR-5 ovarian, 14.9 µM; with OVCAR-8 ovarian, 40.2 µM; in the assay on NCI-H23 lung, 15.1 µM; in the assay on MDA-MB-231 breast it was 4.17 µM. The TGI in the assay on MALME-3M melanoma amounted to 7.09 µM; with HOP-92 NSCLC, 4.26 µM; in the assay on SK-OV-3 ovarian it was 36.1 µM.
As to `OCC#CCOCC#Cc1ccccc1C#CCOCC#CCO`, the GI50 was over 100 µM in the assay with SF-295 CNS; 27.8 µM in the assay on ACHN renal; over 100 µM with OVCAR-5 ovarian; 43.8 µM with OVCAR-8 ovarian; 36 µM with NCI-H23 lung; 30.2 µM in the assay on MDA-MB-231 breast. In addition, in the assay with HOP-92 NSCLC, the GI50 was 21.8 µM. Also, the TGI is over 100 µM with SF-295 CNS; 85.8 µM with ACHN renal; over 100 µM in the assay on OVCAR-5 ovarian; over 100 µM with OVCAR-8 ovarian; over 100 µM with NCI-H23 lung; 83.4 µM in the assay with MDA-MB-231 breast. For the same molecule, in the assay on HOP-92 NSCLC, the TGI is over 100 µM.
As for `C=C1CCC2CC1C(C(=O)c1c[nH]c3ccccc13)=NC2(C)C` (stereo unspecified), the TGI in the assay with ACHN renal, in the assay on OVCAR-5 ovarian, in the assay with U251 CNS, with OVCAR-8 ovarian, in the assay with NCI-H23 lung and with MDA-MB-231 breast was over 100 µM throughout. For the same molecule, the TGI with MALME-3M melanoma and in the assay on SK-OV-3 ovarian was over 100 µM throughout.
Take `C[C@@H](O)[C@@H](C)Oc1nc(Nc2ccc(S(=N)(=O)C3CC3)cc2)ncc1C(F)(F)F` (stereo partly specified): the GI50 with SF-295 CNS is 0.0312 µM; with ACHN renal, 0.0261 µM; in the assay with OVCAR-5 ovarian, 0.033 µM; in the assay on U251 CNS, 0.0252 µM; in the assay on NCI-H23 lung it was 0.0322 µM; in the assay on MDA-MB-231 breast, 0.0336 µM. Also, the GI50 with MALME-3M melanoma is 0.0455 µM; in the assay with HOP-92 NSCLC it was 0.026 µM; with SK-OV-3 ovarian it was 0.0891 µM. Moreover, the TGI was over 55.3 µM in the assay with SF-295 CNS; over 100 µM in the assay with ACHN renal; over 70.6 µM in the assay on OVCAR-5 ovarian; 13.2 µM in the assay on U251 CNS; 0.318 µM with NCI-H23 lung; over 100 µM with MDA-MB-231 breast. Besides, the TGI in the assay with MALME-3M melanoma is 0.167 µM; in the assay with HOP-92 NSCLC it was 0.0753 µM; with SK-OV-3 ovarian it was over 100 µM.
On to `CC(C)C[C@H](CC(=O)O)C(=O)N[C@@H](Cc1c[nH]c2ccccc12)C(=O)N[C@@H](C)c1ccccc1`, for which the GI50 in the assay with SF-295 CNS, with ACHN renal, in the assay on OVCAR-5 ovarian, in the assay with U251 CNS, in the assay on OVCAR-8 ovarian and in the assay on NCI-H23 lung was over 25 µM throughout. The GI50 with MDA-MB-231 breast, in the assay on MALME-3M melanoma and in the assay on SK-OV-3 ovarian was over 25 µM each time. The TGI in the assay on SF-295 CNS, in the assay on ACHN renal, in the assay with OVCAR-5 ovarian, in the assay with U251 CNS, in the assay with OVCAR-8 ovarian and with NCI-H23 lung was over 25 µM throughout. Also, the TGI in the assay on MDA-MB-231 breast, with MALME-3M melanoma and in the assay on SK-OV-3 ovarian was over 25 µM each time.
As for `OCC1NC(COC2OC(CO)C(O)C(O)C2O)C(O)C(O)C1O` (stereo unspecified), the TGI in the assay with SF-295 CNS, in the assay with ACHN renal, with OVCAR-5 ovarian, in the assay on U251 CNS, in the assay with OVCAR-8 ovarian and in the assay on NCI-H23 lung was over 100 µM in each case. The TGI with MDA-MB-231 breast, with MALME-3M melanoma and with HOP-92 NSCLC was over 100 µM throughout.
In the case of `Cc1nc2ccccn2c1NC(=O)NN1C(=O)CSC1c1ccc(Cl)cc1` (stereo unspecified), the GI50 with SF-295 CNS, in the assay on ACHN renal, in the assay on OVCAR-5 ovarian, with U251 CNS, in the assay on OVCAR-8 ovarian and with MDA-MB-231 breast was over 100 µM each time. The GI50 in the assay with HOP-92 NSCLC and in the assay with SK-OV-3 ovarian was over 100 µM each time. Besides, the TGI in the assay on SF-295 CNS, in the assay on ACHN renal, in the assay on OVCAR-5 ovarian, in the assay on U251 CNS, in the assay with OVCAR-8 ovarian and in the assay with MDA-MB-231 breast was over 100 µM in each case. In addition, the TGI in the assay with HOP-92 NSCLC and in the assay with SK-OV-3 ovarian was over 100 µM in each case.
As for `Clc1ccc(-c2cc(-c3ccccc3)nc(N3CCN(CCCNc4ccnc5cc(Cl)ccc45)CC3)n2)cc1`, the GI50 in the assay on SF-295 CNS is 1.86 µM; with ACHN renal, 1.61 µM; with OVCAR-5 ovarian it was 1.66 µM; with U251 CNS, 1.29 µM; in the assay on OVCAR-8 ovarian, 1.15 µM; in the assay with MDA-MB-231 breast, 1.67 µM. For the same molecule, the GI50 was 1.81 µM in the assay on MALME-3M melanoma, 1.21 µM in the assay on HOP-92 NSCLC and 1.74 µM with SK-OV-3 ovarian. The TGI with SF-295 CNS is 3.72 µM; in the assay with ACHN renal, 2.96 µM; with OVCAR-5 ovarian, 3.08 µM; in the assay on U251 CNS it was 2.63 µM; in the assay with OVCAR-8 ovarian, 2.93 µM; in the assay with MDA-MB-231 breast, 3.19 µM. The TGI with MALME-3M melanoma came to 3.35 µM; in the assay on HOP-92 NSCLC it was 2.6 µM; in the assay on SK-OV-3 ovarian, 3.17 µM.
In the case of `Cc1ccc2c(c1)[n+](=O)c(C(=O)c1cccs1)c(C(F)(F)F)n2[O-]`, the GI50 is 0.786 µM and 0.842 µM in the assay with SF-295 CNS; 1.25 µM and 0.541 µM in the assay on ACHN renal; 1.58 µM and 1.57 µM in the assay on OVCAR-5 ovarian; 1.6 µM and 0.906 µM in the assay on U251 CNS; 1.67 µM and 0.247 µM in the assay with OVCAR-8 ovarian; 0.854 µM with NCI-H23 lung. Besides, the GI50 was 1.01 µM and 1.08 µM with MDA-MB-231 breast; 1.63 µM and 1.78 µM in the assay on HOP-92 NSCLC; 1.56 µM and 2.34 µM in the assay on SK-OV-3 ovarian. Moreover, the TGI was 2.46 µM and 5.87 µM in the assay on SF-295 CNS; 6.47 µM and 4.68 µM with ACHN renal; 7.48 µM and 12.9 µM in the assay on OVCAR-5 ovarian; 10.1 µM and 14.3 µM in the assay with U251 CNS; 2.59 µM with NCI-H23 lung; 2.8 µM and 6.37 µM with MDA-MB-231 breast. The TGI with HOP-92 NSCLC was 11.5 µM and 15.3 µM; in the assay with SK-OV-3 ovarian it was 11.2 µM and 19.4 µM.

The values are drawn from PubChem BioAssay (NCI).
